According to patent US20060069132A1, “Azolecarboxamide herbicides” (priority 2004, published 2006):

Key:
large crabgrass = assay: Test B pre-/postemergence herbicide test; type: in vivo, Digitaria sanguinalis; settings: for Crabgrass, Large plant response rating: postemergence
Method in brief: (§1)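 Visual rating, 0 (no effect) to 100 (complete control), versus untreated controls after 13–15 d in greenhouse. Pre- and postemergence applications (postemergence plants 2–18 cm, 1–4 leaves); flooded paddy arm at 2-leaf stage. Compounds in non-phytotoxic solvent plus surfactant.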

giant foxtail = assay: Test B pre-/postemergence herbicide test; type: in vivo, Setaria faberi; settings: for Foxtail, Giant plant response rating (0 to 100 scale) / Plant response rating, Foxtail, Giant: 0 = no effect, 100 = complete control, preemergence; for Foxtail, Giant plant response rating: postemergence
Method in brief: as §1

lambsquarters = assay: Test B pre-/postemergence herbicide test; type: in vivo, Chenopodium album; settings: for Lambsquarters plant response rating: postemergence
Method in brief: as §1

blackgrass = assay: Test B postemergence herbicide test; type: in vivo, Alopecurus myosuroides; settings: postemergence, visual rating, scale 0 (no effect) to 100 (complete control)
Method in brief: (§2)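 Visual ratings, 0 (no effect) to 100 (complete control), made versus controls after 13–15 d greenhouse. Paddy plants treated at 2-leaf stage; postemergence plants at 1- to 4-leaf stage, 2–18 cm tall.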

ducksalad = assay: Test B flooded paddy test; type: in vivo, Heteranthera limosa; settings: 1000 g ai/ha, scale 0 to 100 (0 no effect, 100 complete control)
Method in brief: as §2

barnyardgrass [1] = assay: Test B flooded paddy test; type: in vivo, Echinochloa crus-galli; settings: 1000 g ai/ha, scale 0 to 100 (0 no effect, 100 complete control)
Method in brief: as §2

[2] = tested on: small flower umbrella sedge; assay: Test B flooded paddy test; type: in vivo, Cyperus difformis; settings: 1000 g ai/ha, scale 0 to 100 (0 no effect, 100 complete control)
Method in brief: as §2

Surinam grass = assay: Test B pre-/postemergence herbicide test; type: in vivo, Urochloa decumbens; settings: for Surinam Grass plant response rating (0 to 100 scale) / Plant response rating, Surinam Grass: 0 = no effect, 100 = complete control, preemergence; for Surinam Grass plant response rating: postemergence
Method in brief: as §1

wheat = assay: Test B postemergence herbicide test; type: in vivo, Triticum aestivum; design: key to Wheat plant response rating: 0 = no effect, 100 = complete control; settings: postemergence
Method in brief: as §2

morningglory = assay: Test B pre-/postemergence herbicide test; type: in vivo, Ipomoea coccinea; settings: for Morningglory plant response rating (0 to 100 scale) / Plant response rating, Morningglory: 0 = no effect, 100 = complete control, preemergence; for Morningglory plant response rating: postemergence
Method in brief: as §1

velvetleaf = assay: Test B pre-/postemergence herbicide test; type: in vivo, Abutilon theophrasti; settings: for Velvetleaf plant response rating (0 to 100 scale) / Plant response rating, Velvetleaf: 0 = no effect, 100 = complete control, preemergence; for Velvetleaf plant response rating: postemergence
Method in brief: as §1

cocklebur = assay: Test B pre-/postemergence herbicide test; type: in vivo, Xanthium strumarium; settings: for Cocklebur plant response rating (0 to 100 scale) / Plant response rating, Cocklebur: 0 = no effect, 100 = complete control, preemergence; for Plant response rating, Cocklebur / Cocklebur plant response rating: visual rating; for Cocklebur plant response rating: postemergence, scale 0 (no effect) to 100 (complete control)
Method in brief: as §1

rice [3] = assay: Test B pre-/postemergence herbicide test; type: in vivo, Oryza sativa; settings: 0 = no effect, 100 = complete control, preemergence; for Rice plant response rating (0 to 100 scale): 125 g ai/ha; for Plant response rating, Rice: 500 g ai/ha, visual rating
Method in brief: as §1

pigweed = assay: Test B pre-/postemergence herbicide test; type: in vivo, Amaranthus retroflexus; settings: for Pigweed plant response rating: postemergence
Method in brief: as §1

rice [4] = assay: Test B flooded paddy test; type: in vivo, Oryza sativa; settings: 1000 g ai/ha, scale 0 to 100 (0 no effect, 100 complete control)
Method in brief: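 Read-out: visual comparison with controls, scored 0 to 100, where 100 means complete control and 0 no effect. Formulated chemicals were applied postemergence to plants 2–18 cm tall (1- to 4-leaf), or to flooded-paddy plants at the 2-leaf stage, then held 13 to 15 days under glass.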

barnyardgrass [5] = assay: Test B pre-/postemergence herbicide test; type: in vivo, Echinochloa crus-galli; settings: for Barnyardgrass plant response rating (0 to 100 scale) / Plant response rating, Barnyardgrass: 0 = no effect, 100 = complete control, preemergence; for Plant response rating, Barnyardgrass / Barnyardgrass plant response rating: visual rating; for Barnyardgrass plant response rating: postemergence, scale 0 (no effect) to 100 (complete control)
Method in brief: as §1

wild oat = assay: Test B postemergence herbicide test; type: in vivo, Avena fatua; settings: postemergence
Method in brief: as §2

corn = assay: Test B pre-/postemergence herbicide test; type: in vivo, Zea mays; settings: for Corn plant response rating (0 to 100 scale) / Plant response rating, Corn: 0 = no effect, 100 = complete control, preemergence; for Corn plant response rating: postemergence
Method in brief: as §1

[6] = 125 g ai/ha, 0 = no effect, 100 = complete control, preemergence
[7] = 125 g ai/ha, visual rating, scale 0 (no effect) to 100 (complete control)
[8] = 500 g ai/ha, scale 0 to 100, 0 is no effect, 100 is complete control
[9] = 500 g ai/ha, visual rating, 0 = no effect, 100 = complete control, preemergence
[10] = 500 g ai/ha, visual rating, scale 0 (no effect) to 100 (complete control)

CCNC(=O)c1cc(NC(=O)c2cc(C(C)(C)C)nn2CC)ccn1 [Compound 257]
Crabgrass, Large plant response rating (0 to 100 scale) (large crabgrass; [6]): 0 | Crabgrass, Large plant response rating (large crabgrass; [7]): 0 | Crabgrass, Large plant response rating (large crabgrass; [8]): 10 | Foxtail, Giant plant response rating (0 to 100 scale) (giant foxtail; 125 g ai/ha): 0 | Plant response rating, Foxtail, Giant (giant foxtail; 500 g ai/ha, visual rating): 50 | Foxtail, Giant plant response rating (giant foxtail; [7]): 0 | Foxtail, Giant plant response rating (giant foxtail; [8]): 0 | Lambsquarters plant response rating (0 to 100 scale) (lambsquarters; [6]): 0 | Lambsquarters plant response rating (lambsquarters; [7]): 20 | Lambsquarters plant response rating (lambsquarters; [8]): 50 | Blackgrass plant response rating (blackgrass; 125 g ai/ha): 0 | Blackgrass plant response rating (blackgrass; 500 g ai/ha): 10 | Ducksalad plant response rating (ducksalad): 50 | Barnyardgrass plant response rating (barnyardgrass [1]): 0 | Sedge, Umbrella plant response rating [2]: 0 | Surinam Grass plant response rating (0 to 100 scale) (Surinam grass; 125 g ai/ha): 0 | Plant response rating, Surinam Grass (Surinam grass; 500 g ai/ha, visual rating): 0 | Surinam Grass plant response rating (Surinam grass; [7]): 0 | Surinam Grass plant response rating (Surinam grass; [8]): 20 | Wheat plant response rating (wheat; [7]): 0 | Wheat plant response rating (wheat; [8]): 20 | Morningglory plant response rating (0 to 100 scale) (morningglory; 125 g ai/ha): 0 | Plant response rating, Morningglory (morningglory; 500 g ai/ha, visual rating): 0 | Morningglory plant response rating (morningglory; [7]): 0 | Morningglory plant response rating (morningglory; [8]): 0 | Velvetleaf plant response rating (0 to 100 scale) (velvetleaf; 125 g ai/ha): 0 | Plant response rating, Velvetleaf (velvetleaf; 500 g ai/ha, visual rating): 0 | Velvetleaf plant response rating (velvetleaf; [7]): 0 | Velvetleaf plant response rating (velvetleaf; [8]): 10 | Cocklebur plant response rating (0 to 100 scale) (cocklebur; 125 g ai/ha): 0 | Plant response rating, Cocklebur (cocklebur; 500 g ai/ha): 0 | Cocklebur plant response rating (cocklebur; 125 g ai/ha): 0 | Cocklebur plant response rating (cocklebur; 500 g ai/ha): 70 | Rice plant response rating (0 to 100 scale) (rice [3]): 0 | Plant response rating, Rice (rice [3]): 0 | Pigweed plant response rating (0 to 100 scale) (pigweed; [6]): 0 | Pigweed plant response rating (pigweed; [7]): 60 | Pigweed plant response rating (pigweed; [8]): 80 | Rice plant response rating (rice [4]): 30 | Barnyardgrass plant response rating (0 to 100 scale) (barnyardgrass [5]; 125 g ai/ha): 0 | Plant response rating, Barnyardgrass (barnyardgrass [5]; 500 g ai/ha): 20 | Barnyardgrass plant response rating (barnyardgrass [5]; 125 g ai/ha): 0 | Barnyardgrass plant response rating (barnyardgrass [5]; 500 g ai/ha): 0 | Oat, Wild plant response rating (wild oat; [7]): 10 | Oat, Wild plant response rating (wild oat; [8]): 30 | Corn plant response rating (0 to 100 scale) (corn; 125 g ai/ha): 0 | Plant response rating, Corn (corn; 500 g ai/ha, visual rating): 0 | Corn plant response rating (corn; [7]): 0 | Corn plant response rating (corn; [8]): 0

CCOC(=O)c1ccnc(NC(=O)c2cn(C(C)(C)C)nc2CC)c1 [Compound 238]
Crabgrass, Large plant response rating (0 to 100 scale) (large crabgrass; [6]): 0 | Plant response rating, Crabgrass, Large (large crabgrass; [9]): 0 | Crabgrass, Large plant response rating (large crabgrass; [7]): 0 | Crabgrass, Large plant response rating (large crabgrass; [10]): 0 | Foxtail, Giant plant response rating (0 to 100 scale) (giant foxtail; 125 g ai/ha): 0 | Plant response rating, Foxtail, Giant (giant foxtail; 500 g ai/ha, visual rating): 0 | Foxtail, Giant plant response rating (giant foxtail; [7]): 0 | Foxtail, Giant plant response rating (giant foxtail; [10]): 0 | Lambsquarters plant response rating (0 to 100 scale) (lambsquarters; [6]): 0 | Plant response rating, Lambsquarters (lambsquarters; [9]): 0 | Lambsquarters plant response rating (lambsquarters; [7]): 0 | Lambsquarters plant response rating (lambsquarters; [10]): 0 | Blackgrass plant response rating (blackgrass; 125 g ai/ha): 0 | Blackgrass plant response rating (blackgrass; 500 g ai/ha): 10 | Ducksalad plant response rating (ducksalad): 0 | Barnyardgrass plant response rating (barnyardgrass [1]): 10 | Sedge, Umbrella plant response rating [2]: 80 | Surinam Grass plant response rating (0 to 100 scale) (Surinam grass; 125 g ai/ha): 0 | Plant response rating, Surinam Grass (Surinam grass; 500 g ai/ha, visual rating): 0 | Surinam Grass plant response rating (Surinam grass; [7]): 0 | Surinam Grass plant response rating (Surinam grass; [10]): 0 | Wheat plant response rating (wheat; [7]): 0 | Wheat plant response rating (wheat; [10]): 20 | Morningglory plant response rating (0 to 100 scale) (morningglory; 125 g ai/ha): 0 | Plant response rating, Morningglory (morningglory; 500 g ai/ha, visual rating): 0 | Morningglory plant response rating (morningglory; [7]): 0 | Morningglory plant response rating (morningglory; [10]): 0 | Velvetleaf plant response rating (0 to 100 scale) (velvetleaf; 125 g ai/ha): 0 | Plant response rating, Velvetleaf (velvetleaf; 500 g ai/ha, visual rating): 0 | Velvetleaf plant response rating (velvetleaf; [7]): 0 | Velvetleaf plant response rating (velvetleaf; [10]): 10 | Cocklebur plant response rating (0 to 100 scale) (cocklebur; 125 g ai/ha): 0 | Plant response rating, Cocklebur (cocklebur; 500 g ai/ha): 0 | Cocklebur plant response rating (cocklebur; 125 g ai/ha): 0 | Cocklebur plant response rating (cocklebur; 500 g ai/ha): 20 | Rice plant response rating (0 to 100 scale) (rice [3]): 0 | Plant response rating, Rice (rice [3]): 0 | Pigweed plant response rating (0 to 100 scale) (pigweed; [6]): 0 | Plant response rating, Pigweed (pigweed; [9]): 0 | Pigweed plant response rating (pigweed; [7]): 0 | Pigweed plant response rating (pigweed; [10]): 0 | Rice plant response rating (rice [4]): 30 | Barnyardgrass plant response rating (0 to 100 scale) (barnyardgrass [5]; 125 g ai/ha): 0 | Plant response rating, Barnyardgrass (barnyardgrass [5]; 500 g ai/ha): 0 | Barnyardgrass plant response rating (barnyardgrass [5]; 125 g ai/ha): 0 | Barnyardgrass plant response rating (barnyardgrass [5]; 500 g ai/ha): 0 | Oat, Wild plant response rating (wild oat; [7]): 0 | Oat, Wild plant response rating (wild oat; [10]): 10 | Corn plant response rating (0 to 100 scale) (corn; 125 g ai/ha): 0 | Plant response rating, Corn (corn; 500 g ai/ha, visual rating): 0 | Corn plant response rating (corn; [7]): 0 | Corn plant response rating (corn; [10]): 0
